One assay deals with T1, human PPARalpha (Homo sapiens, UniProt Q07869).
T1 construct: human PPARalpha receptor (amino acids S167-Y468); expressed in transfected cells; plasmid pcDNA3
T1 sequence (Q07869 167-468): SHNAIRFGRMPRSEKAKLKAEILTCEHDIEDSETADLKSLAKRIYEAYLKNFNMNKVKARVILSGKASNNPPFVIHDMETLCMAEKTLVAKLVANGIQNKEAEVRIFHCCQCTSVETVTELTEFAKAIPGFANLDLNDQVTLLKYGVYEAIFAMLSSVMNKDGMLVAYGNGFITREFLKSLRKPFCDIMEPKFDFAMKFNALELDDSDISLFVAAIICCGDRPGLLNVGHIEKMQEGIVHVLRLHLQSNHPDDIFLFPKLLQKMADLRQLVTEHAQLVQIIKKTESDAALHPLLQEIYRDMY
The assay can be described thus: Cellular PPARalpha assay (HEK PPARalpha reporter cell line, luciferase). Format: cell-based. The following applies: 24 h incubation. The procedure: The activity of the compounds was tested as follows. The potency of substances which bind to human PPARalpha and activate it in an agonistic manner is analyzed using a stably transfected HEK cell line (HEK=human embryo kidney) which is referred to here as PPARalpha reporter cell line. It contains two genetic elements, a luciferase reporter element (pdeltaM-GAL4-Luc-Zeo) and a PPARalpha fusion protein (GR-GAL4-humanPPARalpha-LBD) which mediates expression of the luciferase reporter element depending on a PPARalpha ligand. The stably and constitutively expressed fusion protein GR-GAL4-humanPPARalpha-LBD binds in the cell nucleus of the PPARalpha reporter cell line via the GAL4 protein portion to the GAL4 DNA binding motifs 5′-upstream of the luciferase reporter element which is stably integrated in the genome of the cell line. There is only weak expression of the luciferase reporter gene in the absence of a PPARalpha ligand if fatty acid-depleted fetal calf serum (cs-FCS) is used in the assay. PPARalpha ligands bind and activate the PPARalpha fusion protein and thereby stimulate the expression of the luciferase reporter gene. The luciferase which is formed can be detected by means of chemiluminescence via an appropriate substrate.
The PPARalpha reporter cell line was prepared in two stages. Firstly, the luciferase reporter element was constructed and stably transfected into HEK cells. For this purpose, five binding sites of the yeast transcription factor GAL4 (Accession # AF264724) were cloned in 5′-upstream of a 68 bp-long minimal MMTV promoter (Accession # V01175). The minimal MMTV promoter section contains a CCAAT box and a TATA element in order to enable efficient transcription by RNA polymerase II. The cloning and sequencing of the GAL4-MMTV construct took place in analogy to the description of Sambrook J. et. al. (Molecular cloning, Cold Spring Harbor Laboratory Press, 1989). Then the complete Photinus pyralis gene (Accession # M15077) was cloned in 3′-downstream of the GAL4-MMTV element. After sequencing, the luciferase reporter element consisting of five GAL4 binding sites, MMTV promoter and luciferase gene was recloned into a plasmid which confers zeocin resistance in order to obtain the plasmid pdeltaM-GAL4-Luc-Zeo. This vector was transfected into HEK cells in accordance with the statements in Ausubel, F. M. et al. (Current protocols in molecular biology, Vol. 1-3, John Wiley & Sons, Inc., 1995).
In a second step, the PPARalpha fusion protein (GR-GAL4-humanPPARalpha-LBD was introduced into the stable cell clone described. For this purpose, initially the cDNA coding for the N-terminal 76 amino acids of the glucocorticoid receptor (Accession # P04150) was linked to the cDNA section coding for amino acids 1-147 of the yeast transcription factor GAL4 (Accession # P04386). The cDNA of the ligand-binding domain of the human PPARalpha receptor (amino acids S167-Y468; Accession # S74349) was cloned in at the 3′-end of this GR-GAL4 construct. The fusion construct prepared in this way (GR-GAL4-humanPPARalpha-LBD) was recloned into the plasmid pcDNA3 (Invitrogen) in order to enable constitutive expression therein by the cytomegalovirus promoter. This plasmid was linearized with a restriction endonuclease and stably transfected into the previously described cell clone containing the luciferase reporter element. The finished PPARalpha reporter cell line which contains a luciferase reporter element and constitutively expresses the PPARalpha fusion protein (GR-GAL4-human PPARalpha-LBD) was isolated by selection with zeocin (0.5 mg/ml) and G418 (0.5 mg/ml).
The activity of PPARalpha agonists is determined in a 3-day assay which is described below: […]

In a further assay the target is T2, human PPARdelta (Homo sapiens, UniProt Q03181).
T2 construct: human PPARdelta receptor (amino acids S139-Y441); expressed in transfected cells; plasmid pcDNA3
T2 sequence (Q03181 139-441): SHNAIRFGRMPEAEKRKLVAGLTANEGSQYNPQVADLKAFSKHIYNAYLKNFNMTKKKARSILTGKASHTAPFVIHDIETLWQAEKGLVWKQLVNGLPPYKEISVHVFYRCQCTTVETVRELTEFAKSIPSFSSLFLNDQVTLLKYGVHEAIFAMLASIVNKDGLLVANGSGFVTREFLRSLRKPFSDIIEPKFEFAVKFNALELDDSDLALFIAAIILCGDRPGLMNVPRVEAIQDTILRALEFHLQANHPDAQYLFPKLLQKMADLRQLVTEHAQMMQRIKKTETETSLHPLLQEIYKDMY
As to the kind of experiment: Cellular PPARdelta assay (HEK PPARdelta reporter cell line, luciferase). It counts as cell-based. The following applies: 24 h incubation. The procedure: The raw data from the luminometer are transferred into a Microsoft Excel file. Dose-effect plots and EC50 values of PPAR agonists are calculated using the XL.Fit program as specified by the manufacturer (IDBS). […] Compounds of the invention of the formula I activate the PPARalpha receptor. Determination of EC50 values of PPAR agonists in the cellular PPARdelta assay The potency of substances which bind to human PPARdelta and activate it in an agonistic manner is analyzed using a stably transfected HEK cell line (HEK=human embryo kidney) which is referred to here as PPARdelta reporter cell line. In analogy to the assay described for PPARalpha, the PPARdelta reporter cell line also contains two genetic elements, a luciferase reporter element (pdeltaM-GAL4-Luc-Zeo) and a PPARdelta fusion protein (GR-GAL4-humanPPARdelta-LBD) which mediates expression of the luciferase reporter element depending on a PPARdelta ligand. The stably and constitutively expressed fusion protein GR-GAL4-humanPPARdelta-LBD binds in the cell nucleus of the PPARdelta reporter cell line via the GAL4 protein portion to the GAL4 DNA binding motifs 5′-upstream of the luciferase reporter element which is stably integrated in the genome of the cell line. There is only little expression of the luciferase reporter gene in the absence of a PPARdelta ligand if fatty acid-depleted fetal calf serum (cs-FCS) is used in the assay. PPARdelta ligands bind and activate the PPARdelta fusion protein and thereby stimulate expression of the luciferase reporter gene. The luciferase which is formed can be detected by means of chemiluminescence via an appropriate substrate.
The production of the stable PPARdelta reporter cell line is based on a stable HEK-cell clone which was stably transfected with a luciferase reporter element. This step was already described above in the section “construction of the PPARalpha reporter cell line”. In a second step, the PPARdelta fusion protein (GR-GAL4-humanPPARdelta-LBD was stably introduced into this cell clone. For this purpose, the cDNA coding for the N-terminal 76 amino acids of the glucocorticoid receptor (Accession # P04150) was linked to the cDNA section coding for amino acids 1-147 of the yeast transcription factor GAL4 (Accession # P04386). The cDNA of the ligand-binding domain of the human PPARdelta receptor (amino acids S139-Y441; Accession # L07592) was cloned in at the 3′-end of this GR-GAL4 construct. The fusion construct prepared in this way (GR-GAL4-humanPPARdelta-LBD) was recloned into the plasmid pcDNA3 (Invitrogen) in order to enable constitutive expression by the cytomegalovirus promoter. This plasmid was linearized with a restriction endonuclease and stably transfected into the previously described cell clone containing the luciferase reporter element. The resulting PPARdelta reporter cell line which contains a luciferase reporter element and constitutively expresses the PPARdelta fusion protein (GR-GAL4-human PPARdelta-LBD) was isolated by selection with zeocin (0.5 mg/ml) and G418 (0.5 mg/ml).
The activity of PPARdelta agonists is determined in a 3-day assay in exact analogy to the procedure already described for the PPARalpha reporter cell line except that the PPARdelta reporter cell line and a specific PPARdelta agonist was used as a standard to control test efficacy. PPARdelta EC50 values in the range from 0.3 nM to >10 μM were measured for the PPAR agonists of Examples 1 to 69 described in this application. Compounds of the invention of the formula I activate the PPARdelta receptor.

Bounds are passed on as bounds.

For the molecule `Cc1nc(-c2cccc3cccnc23)sc1COc1ccc(-c2nc(=O)o[nH]2)c(Cl)c1` [Example 46, 3-[2-Chloro-4-(4-methyl-2-quinolin-8-yl-thiazol-5-ylmethoxy)-phenyl]-2H-[1,2,4]oxadiazol-5-one], the results for the EC50 on human PPARalpha and on human PPARdelta were 4330 nM and 7390 nM, respectively.

For `Cc1nc(C2CCCCC2)sc1COc1ccc(-c2noc(=O)[nH]2)c(Cl)c1` [Example 5, 3-[2-Chloro-4-(2-cyclohexyl-4-methyl-thiazol-5-ylmethoxy)-phenyl]-4H-[1,2,4]oxadiazol-5-one], the EC50 at human PPARalpha was 1260 nM; on human PPARdelta, 230 nM.

As for `COCc1nc(CCC2CCCCC2)sc1COc1ccc(-c2noc(=O)[nH]2)c(Cl)c1` [Example 10, 3-{2-Chloro-4-[2-(2-cyclohexyl-ethyl)-4-methoxymethyl-thiazol-5-ylmethoxy]-phenyl}-4H-[1,2,4]oxadiazol-5-one], the EC50 at human PPARalpha worked out at 530 nM; on human PPARdelta it was 70 nM.

For the molecule `CCC(Oc1ccc(-c2noc(=O)[nH]2)c(F)c1)c1sc([C@H]2CC[C@H](C(F)(F)F)CC2)nc1CN1CCC(C(F)(F)F)CC1` (stereo partly drawn) [Example 68, 3-(2-Fluoro-4-{1-[2-(trans-1,4-trifluoromethyl-cyclohexyl)-4-(4-trifluoromethyl-piperidin-1-ylmethyl)-thiazol-5-yl]-propoxy}-phenyl)-4H-1,2,4-oxadiazol-5-one], the EC50 is more than 33000 nM at human PPARalpha and 130 nM on human PPARdelta.

With `O=c1[nH]c(-c2ccc(OCc3sc(-c4ccc(C(F)(F)F)nc4)nc3CCCOCc3ccccc3)cc2Cl)no1` [Example 25, 3-{4-[4-(3-Benzyloxy-propyl)-2-(6-trifluoromethyl-pyridin-3-yl)-thiazol-5-ylmethoxy]-2-chloro-phenyl}-4H-[1,2,4]oxadiazol-5-one], the figures for the concentration giving a half-maximal response (EC50) at human PPARalpha and on human PPARdelta were 75 nM and 0.3 nM, respectively.

With `CCC(Oc1ccc(-c2noc(=O)[nH]2)c(OC(F)F)c1)c1sc([C@H]2CC[C@H](C(F)(F)F)CC2)nc1CN1CCC(C(F)(F)F)CC1` (stereo partly drawn) [Example 61, 3-(2-Difluoromethoxy-4-{1-[2-(trans-1,4-trifluoromethyl-cyclohexyl)-4-(4-trifluoromethyl-piperidin-1-ylmethyl)-thiazol-5-yl]-propoxy}-phenyl)-4H-1,2,4-oxadiazol-5-one], the half-maximal effective concentration (EC50) on human PPARalpha was more than 33000 nM; at human PPARdelta, 7 nM.

Take `CCC(Oc1ccc(-c2noc(=O)[nH]2)c(F)c1)c1sc([C@H]2CC[C@H](C(F)(F)F)CC2)nc1C` (stereo partly drawn) [Example 66, 3-(2-Fluoro-4-{1-[4-methyl-2-(trans-1,4-trifluoromethyl-cyclohexyl)-thiazol-5-yl]-propoxy}-phenyl)-4H-1,2,4-oxadiazol-5-one]: the concentration giving a half-maximal response (EC50) came out at 304 nM on human PPARalpha and 11 nM at human PPARdelta.

As for `Cc1nc([C@H]2CC[C@H](C(F)(F)F)CC2)sc1C(OCc1ccc(-c2noc(=O)[nH]2)c(C2CC2)c1)C(F)(F)F` (stereo partly drawn) [Example 39, 3-(2-Cyclopropyl-4-{2,2,2-trifluoro-1-[4-methyl-2-(trans,1,4-trifluoromethyl-cyclohexyl)-thiazol-5-yl]-ethoxymethyl}-phenyl)-4H-[1,2,4]oxadiazol-5-one], the 50% effective concentration (EC50) was found to be 5440 nM on human PPARalpha and 86 nM at human PPARdelta.

In the case of `COCc1nc(C2CCCCCC2)sc1COc1ccc(-c2noc(=O)[nH]2)c(Cl)c1` [Example 11, 3-[2-Chloro-4-(2-cycloheptyl-4-methoxymethyl-thiazol-5-ylmethoxy)-phenyl]-4H-[1,2,4]oxadiazol-5-one], the EC50 on human PPARalpha was found to be 1250 nM; on human PPARdelta, 130 nM.

With `COCc1nc([C@H]2CC[C@H](C(F)(F)F)CC2)oc1COc1ccc(-c2noc(=O)[nH]2)c(Cl)c1` [Example 18a, Trans-3-{2-Chloro-4-[4-methoxymethyl-2-(4-trifluoromethyl-cyclohexyl)-oxazol-5-ylmethoxy]-phenyl}-4H-[1,2,4]oxadiazol-5-one], the EC50 was determined as 2500 nM on human PPARalpha and 40 nM at human PPARdelta.

As for `Cc1nc(-c2ccc(C(F)(F)F)nc2)sc1C(OCc1ccc(-c2noc(=O)[nH]2)c(Cl)n1)C(F)(F)F` (stereo not shown) [Example 37, 3-(2-Chloro-6-{2,2,2-trifluoro-1-[4-methyl-2-(6-trifluoromethyl-pyridin-3-yl)-thiazol-5-yl]-ethoxymethyl}-pyridin-3-yl)-4H-[1,2,4]oxadiazol-5-one], the EC50 on human PPARalpha is more than 33000 nM; at human PPARdelta it was 59 nM.

Usually EC50 stands for the concentration that produces a half-maximal response. A low value points to higher potency in that assay.

(Values after patent publication US7709481B2, “Phenyl-1,2,4-oxadiazolone derivatives, processes for their preparation and methods for their use as pharmaceuticals” (Sanofi-Aventis, priority 2005, dated 2010).)
